From PubChem BioAssay (NCI)
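Test compounds were applied to cells in 96-well plates for 48 hours at 5 doses. Abbreviation: GI50, concentration required for 50% inhibition of growth. TGI denotes the concentration required for complete inhibition of growth.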

Experiments:
Assay in all cases: NCI tumour cell line growth inhibition, 48 h
[1] = system: A549 NSCLC
[2] = system: HCC-2998 colon
[3] = system: HCT-15 colon
[4] = system: KM12 colon
[5] = system: MDA-N
[6] = system: RPMI-8226 leukemia
[7] = system: SN12C renal
[8] = system: TK-10 renal
[9] = system: A498 renal
[10] = system: RXF 393 renal

Row | SMILES | TGI [1] | TGI [2] | TGI [3] | TGI [4] | TGI [5] | TGI [6] | TGI [7] | TGI [8] | TGI [9] | TGI [10] | GI50 [2] | GI50 [3] | GI50 [4] | GI50 [6] | GI50 [10] | GI50 [8]
1 | Clc1ccc(C2=CCN3CC=C(c4ccc(Cl)cc4)C23)cc1 | 28.3 µM | 11.3 µM | 23.5 µM | 19.2 µM | 22.7 µM | 18.5 µM | 21 µM | 27.5 µM |  |  |  |  |  |  |  | 
2 | CSc1cnc2ccccc2c1Sc1c[nH]c2ccccc2c1=O | 24.8 µM | 29.5 µM | > 80.8 µM | 22.2 µM |  | 64.4 µM | 76.3 µM | 91.4 µM | 47.4 µM | 37.6 µM |  |  |  |  |  | 
3 | Oc1ccc(Oc2cc3c(cc2Oc2ccc(O)cc2)-c2nc-3nc3[nH]c(nc4nc(nc5[nH]c(n2)c2cc(Oc6ccc(O)cc6)c(Oc6ccc(O)cc6)cc52)-c2cc(Oc5ccc(O)cc5)c(Oc5ccc(O)cc5)cc2-4)c2cc(Oc4ccc(O)cc4)c(Oc4ccc(O)cc4)cc32)cc1 | > 100 µM | > 100 µM | > 100 µM | > 100 µM | > 100 µM |  | > 100 µM | > 100 µM |  |  |  |  |  |  |  | 
4 | Cc1c2ccncc2c(C)c2c1[nH]c1ccc(OCCN(C)C)cc12 | 0.844 µM | 0.656 µM | 0.706 µM | 0.499 µM |  | 0.135 µM | 1.61 µM |  | 2.77 µM | 0.906 µM |  |  |  |  |  | 
5 | NC(=S)NC/C=C/Cl | > 100 µM |  | > 100 µM | > 100 µM | > 100 µM | > 100 µM |  | > 100 µM |  | > 100 µM |  |  |  |  |  | 
6 | COC1=CC(=O)N(C)C(O)C1(C#N)OC1OC(CO)C(O)C(O)C1O (configuration not stated) | > 100 µM | > 100 µM | > 100 µM | > 100 µM | > 100 µM | > 100 µM | > 100 µM | > 100 µM | > 100 µM |  |  |  |  |  |  | 
7 | O=C(O)c1ccccc1C1c2ccccc2Oc2ccccc21 | > 100 µM |  | > 100 µM | > 100 µM | > 100 µM | > 100 µM | > 100 µM | > 100 µM | 82.1 µM | > 100 µM |  |  |  |  |  | 
8 | COc1cc(N(CCC#N)CCC#N)ccc1/C=N\NC(=O)c1ccc(C)cc1 | > 100 µM |  | > 100 µM | > 100 µM | > 100 µM |  | > 100 µM | > 100 µM |  | > 100 µM |  |  |  |  |  | 
9 | COc1ccc(C(=O)/C=C/c2cc(-c3cc(OC)c(OC)c(OC)c3)n[nH]2)cc1 |  | 3.4 µM | 4.37 µM | 3.06 µM |  | 2.49 µM |  | 5.77 µM |  | 2.56 µM | 1780 nM | 1580 nM | 1560 nM | 433 nM | 1270 nM | 2220 nM
10 | Cc1ccc(S(=O)(=O)NC(=O)C2=C3SCCN3C(=O)N(S(=O)(=O)c3ccc(C)cc3)C2c2ccccc2)cc1 (configuration not stated) | > 100 µM | 48 µM | > 100 µM | 71.6 µM |  | 92.3 µM | > 100 µM | > 100 µM | > 100 µM | 78.7 µM |  |  |  |  |  | 
11 | COc1cc(Oc2nc3cc(F)c(F)cc3nc2-c2ccccc2)cc(OC)c1OC | > 100 µM |  | > 100 µM | > 100 µM | > 100 µM |  | > 100 µM | > 100 µM | > 100 µM | > 100 µM |  |  |  |  |  | 
12 | O=c1c2ccccc2nc2ccc3c(Cl)[nH][nH]c3c12 | > 100 µM | > 100 µM | > 100 µM | > 100 µM |  | > 100 µM | > 100 µM | > 100 µM | > 100 µM | > 100 µM |  |  |  |  |  | 
13 | O=C1NC(Cc2ccc(O)cc2)C(=O)NC1Cc1ccc(O)cc1 (configuration not stated) | > 100 µM |  | > 100 µM | > 100 µM | > 100 µM | > 100 µM | > 100 µM | > 100 µM | > 100 µM | > 100 µM |  |  |  |  |  | 
14 | CCC(=O)OC1CCn2c1nc1c2C(=O)C(C)=C(NC(C)=O)C1=N (configuration not stated) | 10.2 µM | 13 µM | 6.27 µM | 5.37 µM |  |  | 3.02 µM | 12.8 µM | 4.21 µM |  |  |  |  |  |  | 
15 | CC1CCC2(OC1)OC1C(O)C3C4CCC5CC(OC6OC(CO)C(OC7OC(CO)C(O)C(OC8OCC(O)C(O)C8O)C7OC7OC(CO)C(O)C(OC8OC(CO)C(O)C(O)C8O)C7O)C(O)C6O)C(O)CC5(C)C4CCC3(C)C1C2C (configuration not stated) | 4.32 µM | 4.69 µM | 12.2 µM | 4.77 µM | 7.94 µM | 9.28 µM | 9.88 µM | 6.1 µM | 46.6 µM |  |  |  |  |  |  | 
16 | CC1=CCC[C@H]2[C@](C)(CC3=CC(=O)C(SCC(C)C)=CC3=O)[C@@H](C)CC[C@]12C | 29.9 µM | 31.5 µM | 31.8 µM | 28 µM |  | 14.3 µM | > 57.5 µM | 31.3 µM | 33.2 µM | 26.1 µM |  |  |  |  |  | 
17 | Clc1cc(Cl)ncn1 | > 100 µM | > 100 µM | > 100 µM | > 100 µM | > 100 µM | > 100 µM | > 100 µM | > 100 µM |  | > 100 µM |  |  |  |  |  | 
18 | CN(C)CC1CCC(CN(C)C)C(=O)C1=O (configuration not stated) | 25.1 µM | 35.4 µM | 7.78 µM | 28.1 µM |  | 18.1 µM | 32.7 µM | 9.96 µM | 31.8 µM | 3.47 µM |  |  |  |  |  | 
19 | CC(C)Oc1cccc(N2C(Nc3ccccc3)=Nc3ccncc3S2(=O)=O)c1 | > 100 µM | 71.5 µM | 75.5 µM | 65.8 µM | > 100 µM |  | > 100 µM |  | 79.9 µM | 95.6 µM |  |  |  |  |  | 
20 | O=C1C2C=CC(n3[nH]c(=O)n(Cc4ccccc4)c3=O)CC2C(=O)N1c1ccc(Br)cc1 (configuration not stated) | > 100 µM | > 100 µM | > 100 µM | > 100 µM |  | > 100 µM | > 100 µM | > 100 µM | > 100 µM | > 100 µM |  |  |  |  |  | 
21 | Cc1cc(-c2nc3cccc(O)c3s2)ccc1N | 41.4 µM | > 100 µM | > 100 µM | 36.7 µM | > 100 µM | > 100 µM | > 100 µM | > 100 µM |  | > 100 µM |  |  |  |  |  | 
22 | COc1ccc(C)cc(=O)c1O | > 100 µM |  | > 100 µM | > 100 µM |  | > 100 µM | > 100 µM | > 100 µM | > 100 µM | 90 µM |  |  |  |  |  | 
23 | O=C(c1ccc(Cl)cc1)N1CCN=C1c1cc2ccccc2c2ccccc12 | 31 µM |  | 31.3 µM | 30.6 µM | 31.9 µM | 55.8 µM | 30.6 µM | 29.2 µM | 28.9 µM | 30.6 µM |  |  |  |  |  | 
